{"source": "patent US20170202939A1", "about": "“PERSONALIZED CANCER VACCINES AND METHODS THEREFOR” (Washington University, priority 2014, published 2017)", "tested_on": "neoantigen-specific T cells", "assay": "cytokine production by neoantigen-specific T cells (MILLIPLEX / IFN-γ ELISA)", "type": "cell-based, human", "conditions": "upon antigen stimulation, supernatants at 24 h", "description": "For analysis of cytokines secreted by T cells upon SCT activation, cultures were activated 14 d after SCT or AT-SCT stimulation, T cells were restimulated with SCT at 1:1 ratio in RPMI 1640 supplemented with 5% pooled human sera (RPMI-5), supernatants were collected 24 h after activation and characterized using a MILLIPLEX® cytokine kit (Millipore, Billerica, Mass.), per the manufacturer's instructions.\nFor functional characterization, neoantigen-specific T cell lines were generated using autologous mDC and antigen loaded artificial antigen presenting cells at a ratio of 1:1 as previously described (Carreno, B. M., et al., J. Immunol., 188, 5839-5849, 2012). […] For production of cytokines, neoantigen-specific T cells were restimulated using artificial antigen presenting cells in the presence or absence of peptide, supernatants collected at 24 h and cytokine produced determined using MILLIPLEX® MAP Human Cytokine Panel I (EMD Millipore).\nSubstantial evidence supports the hypothesis that Th2/Tc2 immune polarization correlates with worse disease outcome in patients with cancer (Fridman, W. H., et al., Nat. Rev. Cancer, 12, 298-306, 2012). […] Thus, we determined production of cytokines upon antigen stimulation as described above. […] Cytokine production was determined using a multi-plex bead assay. […]", "note": "No end group written: not given here."}
{"sequence": "CLNEYHLFL", "values": [{"measurement": "cytokine phenotype of neoantigen-specific T cells (IFN-γ relative to IL-4, IL-5, IL-13)", "result": "mixed phenotype"}]}
{"sequence": "KLMNIQQKL", "values": [{"measurement": "cytokine phenotype of neoantigen-specific T cells (IFN-γ relative to IL-4, IL-5, IL-13)", "result": "Tc1 phenotype"}]}
